# Key:
# [1] = system: primary murine splenocytes; assay: NAM/PI staining of primary murine splenocytes; type: cell-based, C57BL/6 mouse; conditions: splenocytes 90% viable; 10 μL NAM (100 μg pr. mL DMSO) to 90 μL cells
# Experimental: Materials and Methods. The spleen from a C57BL/6 mouse was placed in ice-cold PBS and gently ground using the end of a sterile syringe. The suspension was centrifuged at 300 g for 10 minutes; the pellet was resuspended in 1 mL 0.83% NH4Cl to lyse erythrocytes and incubated for 3 minutes on ice. The cells were then added 14 mL PBS and centrifuged at 300 g for 10 minutes. The splenocytes were resuspended in RPMI (Invitrogen, #61870) supplemented with 10% heat-inactivated fetal bovine serum (Invitrogen, #10108-165), 100 U/mL penicillin and 100 μg/mL streptomycin (Invitrogen, #15140-122). The cell clumps were allowed to sediment and were removed by pipetting, and the resulting single cell suspension was used. 90 μL splenocytes (cell density 1.7×10^6, 90% viable determined using the NC-100 NucleoCounter system following the manufacturer's (ChemoMetec A/S) protocol) were added 10 μL NAM (N-(9-acridinyl)maleimide, Sigma, #01665, CAS no. 49759-20-8) dissolved in DMSO (100 μg NAM pr. mL DMSO) and mixed by pipetting. […] The cells were investigated using an Olympus IX50 fluorescence microscope, and images were captured using a Lumenera CCD camera and in-house developed software. PI and NAM fluorescence were detected using, respectively, U-MWG2 (green long pass: 510-550 nm) and U-MNUA2 (UV band pass, 330-385 nm) filter cubes (Olympus).
# [2] = system: Drosophila S2 cells; assay: NAM/PI staining of Drosophila S2 cells, fluorescence microscopy; type: cell-based, Drosophila melanogaster; conditions: S2 cells diluted 10 times in PBS; 10 μg/mL NAM
# Experimental: Materials and Methods. Drosophila S2 cells were grown at 28° C. without shaking in Schneider's Drosophila medium (Invitrogen, #21720) supplemented with 10% heat-inactivated fetal bovine serum (Invitrogen, #10108-165). S2 cells (cell density 1.7×10^7, 99% viable determined using the YC-100 NucleoCounter system with diploid settings following the manufacturer's (ChemoMetec) protocol) were diluted 10 times in PBS and stained with 10 μg/mL NAM (Sigma, #01665). Cells were loaded into a NucleoCassette, containing the DNA stain propidium iodide (PI). The cells were investigated using an Olympus IX50 fluorescence microscope, and images were captured using a Lumenera CCD camera and in-house developed software. PI and NAM fluorescence were detected using, respectively, U-MWG2 (green long pass: 510-550 nm) and U-MNUA2 (UV band pass, 330-385 nm) filter cubes (Olympus).
# [3] = system: bone marrow cells; assay: NAM/PI staining of bone marrow derived cells; type: cell-based, murine; conditions: bone marrow cells 93% viable; 10 μL NAM (100 μg pr. mL DMSO) to 90 μL cells
# Experimental: Materials and Methods. The bone marrow cells were harvested aseptically in the laminarflow hood. Briefly, bilateral tibia and femur were aseptically removed, freed of surrounding soft tissue, and placed in a petri dish with 10 mL 70% ethanol. After 2 minutes they were transferred to ice cold PBS. The bone marrow cavity was then flushed with 5 ml cold PBS using a 5-ml syringe with a 27-gauge needle attached, and the cells were collected from each bone. The cells were centrifuged at 300 g for 10 min, the supernatant was discarded, and cells were washed twice. […] 90 μL bone marrow cellss (cell density 1.7×10^6, 93% viable determined using the NC-100 NucleoCounter system following the manufacturer's (ChemoMetec A/S) protocol) were added 10 μL NAM (N-(9-acridinyl)maleimide, Sigma, #01665, CAS no. 49759-20-8) dissolved in DMSO (100 μg NAM pr. mL DMSO) and mixed by pipetting. […] The cells were investigated using an Olympus IX50 fluorescence microscope, and images were captured using a Lumenera CCD camera and in-house developed software. PI and NAM fluorescence were detected using, respectively, U-MWG2 (green long pass: 510-550 nm) and U-MNUA2 (UV band pass, 330-385 nm) filter cubes (Olympus).
smiles,measurement,setting,value
"O=C1C=CC(=O)N1c1c2ccccc2nc2ccccc12 [NAM, N-(9-acridinyl)maleimide]",staining of cells (UV filter) versus PI positive cells,[1],nearly all the primary spleen cells were stained by NAM
same,staining of cells versus PI,[2],NAM and PI were found to complementary stain S2 cells
same,staining of cells (UV filter) versus PI positive cells,[3],nearly all the primary bone marrow cells were stained by NAM

# Reference: US9128097B2, “Method and kit for assessing viable cells” (ChemoMetec A/S, priority 2008, dated 2015)
